Tests used:
PDE10 from pig striatum = PDE10 from pig striatum (Sus scrofa, UniProt A0A287B941); assay: Inhibition of PDE10 from pig striatum ([3H]-cAMP SPA); assay type: biochemical; settings: for IC50: pig striatum preparation, 0.1 μM [3H]-cAMP, 37° C., 30 minutes
Protocol: (§1) Phosphodiesterase isoenzyme 10 (PDE10) activity was determined in preparations of rat, pig and guinea pig striatum respectively. Striatum from male Wistar rats (180-200 g), male hybrid pigs (150 kg) and male guinea pigs (CRL (HA), 500 g) respectively were collected and frozen at −70° C.
(§2) For the enzymatic testing of PDE10 activity 0.5 g of the isolated and frozen striatum was homogenised in 10 ml 50 mM Tris/Mg-buffer at 4° C. and centrifuged for one hour at 100000 g.
(§3) Nonspecific activity was tested without the enzyme. […] For determination of IC50 values the Hill-plot, 2-parameter-model, was used.

[1] = tested on: MK-801-induced hyperactivity and stereotyped sniffing; assay: MK-801-induced psychosis (hyperactivity and stereotyped sniffing); assay type: in vivo, rat; settings: p.o., 30 min before test (Example 30: 60 min), female Wistar rats, MK-801 0.1 mg/kg i.p. 10 min before, vs MK-801 control; for dose significantly reversing MK-801-induced hyperactivity: activity recorded 1 h; for dose significantly reversing MK-801-induced stereotyped sniffing: scored 1 h
Protocol: Female Wistar rats (Crl: (WI) BR, Charles River, Sulzfeld, Germany) weighing 150 to 180 g were used for the MK-801-induced psychosis. Animals were housed under standard conditions in groups of five on a 12 h light/dark cycle (light on at 0600 h) with ad libitum access to food (Pellets, ssniff M/R 15, Spezialdiät GmbH, Soest/Westfalen) and
Hydroxyethylcellulose was solved in distilled water.
MK-801 was solved in saline so that an administration volume of 0.5 ml/100 g was reached. The suspensions and solution were placed on a magnetic stirrer before and during dosing procedures.
The behaviour induced by the NMDA antagonist MK-801 is generally accepted as a rat model of psychosis. MK-801 induces stereotyped sniffing, hyperactivity and ataxia in rats after intraperitoneal administration.
Locomotor activity of the rats was recorded by the MotiTest Apparatus (TSE, Bad Homburg, Germany). The test area consisted of a squared arena (45×45 cm) with protective plexiglass walls (20 cm of height) where rats could freely move. Horizontal movements were recorded by 32 infrared photocells arranged along the bottom of each wall of the arena. The activity [sec] was measured by the computer program “ActiMot” (TSE, Bad Homburg, Germany).
Stereotyped sniffing was scored by the experimenter every five minutes for one hour (12 intervals) according to the method described by Andiné et al. (1999). The scores of the 12 intervals were summed up at the end of the recording time.
The day of experiment the female rats were placed in the laboratory and received the test compound or vehicle at the appropriate time prior to test. MK-801 0.1 mg/kg was intraperitoneally administered 10 minutes prior to test.
At the beginning of the test the rats were placed in the centre of the squared arena of the MotiTest apparatus. Behaviour of the rats was recorded for one hour. After each run animals were removed and the boxes thoroughly cleaned and dried.
Results were analysed by one way analysis of variance (ANOVA). Tukey test was used for individual comparison. P<0.05 was regarded as significant.

[2] = target: PDE10 from guinea pig striatum (Cavia porcellus, UniProt A0A286XN47); assay: Inhibition of PDE10 from guinea pig striatum ([3H]-cAMP SPA); assay type: biochemical; settings: guinea pig striatum preparation; 0.1 μM [3H]-cAMP; 37° C., 30 minutes
Protocol: as §1, §2, §3

PDE10 from rat striatum = target: T1, PDE10 from rat striatum (Rattus norvegicus, UniProt Q9QYJ6); assay: Inhibition of PDE10 from rat striatum ([3H]-cAMP SPA); assay type: biochemical; settings: substrate of the enzyme preparation
T1 construct: from tissue; host or cells: rat striatum (male Wistar rats), homogenate fractions enriched on HiTrap Q HP
T1 sequence (Q9QYJ6 1-794): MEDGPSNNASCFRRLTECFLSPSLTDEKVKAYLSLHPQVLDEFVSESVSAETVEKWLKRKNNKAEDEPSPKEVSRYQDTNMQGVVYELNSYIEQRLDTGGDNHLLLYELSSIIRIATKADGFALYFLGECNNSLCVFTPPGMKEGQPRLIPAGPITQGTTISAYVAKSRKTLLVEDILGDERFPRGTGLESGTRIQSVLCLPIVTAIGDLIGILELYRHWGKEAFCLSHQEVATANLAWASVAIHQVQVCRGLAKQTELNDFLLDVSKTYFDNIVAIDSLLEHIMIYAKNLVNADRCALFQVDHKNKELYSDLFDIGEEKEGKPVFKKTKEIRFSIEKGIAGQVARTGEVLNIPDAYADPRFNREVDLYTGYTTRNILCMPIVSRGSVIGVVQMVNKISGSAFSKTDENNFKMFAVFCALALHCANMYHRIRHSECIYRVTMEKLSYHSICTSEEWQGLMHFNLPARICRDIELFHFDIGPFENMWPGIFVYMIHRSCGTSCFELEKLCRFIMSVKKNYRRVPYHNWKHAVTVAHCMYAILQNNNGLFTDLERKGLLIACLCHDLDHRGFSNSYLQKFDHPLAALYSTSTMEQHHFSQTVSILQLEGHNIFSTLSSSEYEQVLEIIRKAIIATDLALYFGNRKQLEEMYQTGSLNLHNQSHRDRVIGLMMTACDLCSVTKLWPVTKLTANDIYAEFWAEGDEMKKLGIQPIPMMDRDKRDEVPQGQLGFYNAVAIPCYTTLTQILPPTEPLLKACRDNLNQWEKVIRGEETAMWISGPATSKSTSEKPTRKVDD
Protocol: as §1, §2, §3

PDE10 from guinea pig striatum, sequence (A0A286XN47 1-773): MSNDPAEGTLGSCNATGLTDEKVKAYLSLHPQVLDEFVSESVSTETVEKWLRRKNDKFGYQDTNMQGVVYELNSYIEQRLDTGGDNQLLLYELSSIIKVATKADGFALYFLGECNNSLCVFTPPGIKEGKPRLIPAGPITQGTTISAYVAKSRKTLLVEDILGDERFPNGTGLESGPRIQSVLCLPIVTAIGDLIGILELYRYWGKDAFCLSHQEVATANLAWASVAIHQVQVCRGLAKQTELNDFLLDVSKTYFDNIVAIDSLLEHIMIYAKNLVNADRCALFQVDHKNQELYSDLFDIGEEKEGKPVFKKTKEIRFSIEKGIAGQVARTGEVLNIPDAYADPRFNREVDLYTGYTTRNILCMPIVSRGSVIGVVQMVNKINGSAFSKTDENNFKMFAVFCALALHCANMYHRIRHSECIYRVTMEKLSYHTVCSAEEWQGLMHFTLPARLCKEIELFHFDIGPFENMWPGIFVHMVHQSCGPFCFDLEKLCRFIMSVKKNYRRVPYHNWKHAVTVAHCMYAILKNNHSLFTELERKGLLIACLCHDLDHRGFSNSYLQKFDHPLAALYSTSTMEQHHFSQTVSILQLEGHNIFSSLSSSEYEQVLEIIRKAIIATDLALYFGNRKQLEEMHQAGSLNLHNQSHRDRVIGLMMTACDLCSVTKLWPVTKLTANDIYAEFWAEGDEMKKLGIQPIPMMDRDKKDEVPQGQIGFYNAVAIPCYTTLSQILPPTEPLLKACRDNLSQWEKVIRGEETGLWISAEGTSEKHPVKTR

Which IC50 (PDE10 from pig striatum) does the source give for “1-propyl-4,8-dimethyl-imidazo[1,5-a]pyrido[3,2-e]pyrazine [Example 53]” here?
Its IC50 is 43 nM.

Which “dose significantly reversing MK-801-induced hyperactivity” value [1] does the source give for “3,4-dimethyl-8-(piperidin-1-yl)-methoxy-1-propyl-imidazo[1,5-a]pyrido[3,2-e]pyrazine [Example 55]” here?
Its value is 30 mg/kg.

And the “dose significantly reversing MK-801-induced stereotyped sniffing” value [1]?
The value was 30 mg/kg.

Which “dose significantly reversing MK-801-induced hyperactivity” value [1] does the source give for “4-cyano-8-methoxy-3-methyl-1-ethyl-imidazo[1,5-a]pyrido[3,2-e]pyrazine [Example 30]” here?
Its value is no less than 10 mg/kg.

What about the “dose significantly reversing MK-801-induced stereotyped sniffing” value [1] of the same compound?
Its value is no less than 10 mg/kg.

Which results are given for “8-methoxy-3-methyl-1-propyl-imidazo[1,5-a]pyrido[3,2-e]pyrazine [Example 35]”?
dose significantly reversing MK-801-induced hyperactivity [1]: 30 mg/kg; dose significantly reversing MK-801-induced stereotyped sniffing [1]: ≥ 30 mg/kg

What does the source list for “8-methoxy-4-methoxycarbonylamino-3-methyl-1-propyl-imidazo[1,5-a]pyrido[3,2-e]pyrazine [Example 62]”?
dose significantly reversing MK-801-induced hyperactivity [1]: 5 mg/kg; dose significantly reversing MK-801-induced stereotyped sniffing [1]: 5 mg/kg

For `CCCN1CC=C(OC)C2=C1N1CN(OC)C=C1C=N2` [Example 2, 4,8-dimethoxy-1-propyl-imidazo[1,5-a]pyrido[3,2-e]pyrazine], which melting point is on record?
The melting point was 113 to 116 °C.

For `CCCOC1=C(C)CN(CC)C2=C1N=CC1=CN(OC)CN12` [Example 7, 1-ethyl-8-methoxy-3-methyl-4-propyloxy-imidazo[1,5-a]pyrido[3,2-e]pyrazine], which melting point is on record?
The melting point was 78 to 81 °C.

Which melting point does the source give for `CCCN1CC(C)=C(OC(C)C)C2=C1N1CN(OC)C=C1C=N2` [Example 9, 4-isopropyloxy-8-methoxy-3-methyl-1-propyl-imidazo[1,5-a]pyrido[3,2-e]pyrazine] here?
The melting point was 78 to 80 °C.

For `CCCN1CC(C)=C(SC)C2=C1N1CN(OC)C=C1C=N2` [Example 26, 8-methoxy-3-methyl-4-methylthio-1-propyl-imidazo[1,5-a]pyrido[3,2-e]pyrazine], which melting point is on record?
Its melting point is 112 to 115 °C.

Which IC50 [2] does the source give for `CCCc1nc(C)c2c(C#N)nc3ccc(OC)nc3n12` [Example 29, 4-cyano-8-methoxy-3-methyl-1-propyl-imidazo[1,5-a]pyrido[3,2e]pyrazine] here?
The IC50 was 18 nM.

And the “dose significantly reversing MK-801-induced stereotyped sniffing” value [1]?
The value was no less than 5 mg/kg.

For `CCN1CC(C)=C([S+](C)[O-])C2=C1N1CN(OC)C=C1C=N2` (centres unmarked) [Example 34, 1-ethyl-8-methoxy-3-methyl-4-methylsulfinyl-imidazo[1,5-a]pyrido[3,2-e]pyrazine], which melting point is on record?
The melting point was 189 to 192 °C.

With `CCN1CC(C)=CC2=C1N1CN(OC)C=C1C=N2` [Example 36, 1-ethyl-8-methoxy-3-methyl-imidazo[1,5-a]pyrido[3,2-e]pyrazine] as the compound, how does the melting point read?
The melting point was 159 to 162 °C.

For `CCCN1CC(C)=C(C)C2=C1N1CN(C)C=C1C=N2` [Example 51, 1-propyl-3,4,8-trimethyl-imidazo[1,5-a]pyrido[3,2-e]pyrazine], which melting point is on record?
Its melting point is 104 to 107 °C.

Which IC50 (PDE10 from pig striatum) does the source give for `CCCc1nc(C)c2c(NS(=O)(=O)C(F)(F)F)nc3ccc(OC)nc3n12` [Example 73, 8-methoxy-3-methyl-1-propyl-4-trifluoromethylsulfonylamino-imidazo[1,5a]pyrido[3,2-e]pyrazine] here?
Its IC50 is 19 nM.

For `CCCN1CC(C)=C(NS(=O)(=O)CCC)C2=C1N1CN(OC)C=C1C=N2` [Example 74, 8-methoxy-3-methyl-1-propyl-4-propylsulfonylamino-imidazo[1,5-a]pyrido[3,2-e]pyrazine], which melting point is on record?
Its melting point is 203 to 206 °C.

Which melting point does the source give for `CCCN1CC(C)=C(NS(=O)(=O)c2ccc(C)cc2)C2=C1N1CN(OC)C=C1C=N2` [Example 76, 8-methoxy-3-methyl-4-(4-methylphenylsulfonylamino)-1-propyl-imidazo[1,5-a]pyrido[3,2-e]pyrazine] here?
Its melting point is 229 to 232 °C.

For `CCCN1CC(C)=C(N(S(=O)(=O)c2ccc(C)cc2)S(=O)(=O)c2ccc(C)cc2)C2=C1N1CN(OC)C=C1C=N2` [Example 77, 4-[N,N-bis-(4-methylphenylsulfonyl)-amino]-8-methoxy-3-methyl-1-propyl-imidazo[1,5-a]pyrido[3,2-e]pyrazine], which melting point is on record?
Its melting point is 206 to 209 °C.

With `CON1C=C2C=NC3=C(N(CCC(F)(F)F)CC(C)=C3NS(C)(=O)=O)N2C1` [Example 78, 8-methoxy-3-methyl-1-(3,3,3-trifluoropropyl)-4-methylsulfonylamino-imidazo[1,5-a]pyrido[3,2-e]pyrazine] as the compound, how does the melting point read?
The melting point was 250 to 253 °C.

Which melting point does the source give for `CON1C=C2C=NC3=C(N2C1)N(c1ccccc1)CC(C)=C3NS(C)(=O)=O` [Example 81, 8-methoxy-3-methyl-1-phenyl-4-methylsulfonylamino-imidazo[1,5-a]pyrido[3,2-e]pyrazine] here?
Its melting point is 217 to 220 °C.

Which results are given for `Nc1nc2c(ncn2[C@@H]2O[C@@H]3COP(=O)(O)O[C@H]3[C@H]2O)c(=O)[nH]1` [cGMP]?
Km (PDE10 from rat striatum): 1.8 µM; Km (PDE10 from pig striatum; substrate of the enzyme preparation): 2.2 µM

From patent US7550465B2, “Pyrido[3,2-e]pyrazines, their use as inhibitors of phosphodiesterase 10, and processes for preparing them” (Elbion GmbH, priority 2006, dated 2009)
